According to US20080260774A1, “Alpha-galactosyl ceramide analogs and their use as immunotherapies” (priority 2007, published 2008):

Columns and labels:
[1] = tested on: FLU-A virus serotype H1N1 (WSN); experiment: Cytopathetic effect / virus titer in MDCK cells infected with H1N1 (WSN); type: cell-based
Method: FIG. 60(A-B) show the cytopathetic effect (CPE) of Madin-Darby canine kidney (MDCK) cells in vitro. MDCK cells were pretreated with vehicle, α-GalCer or one of the α-GalCer analogs C13, C14 or C16 at 10 μg/ml for four hours, followed by infection with FLU-A virus serotype H1N1 (WSN) at 10TCID50.
BALB/c mice were treated via intranasal route with control, α-GalCer (C1) or the α-GalCer analogs C13, C14 or C16 at one hour prior to virus challenge with H1N1 (WSN). […] In general, certain α-GalCer analogs may exert direct anti-viral effects, or act indirectly via immune stimulation. […] MDCK cells were pretreated with vehicle, α-GalCer or one of the α-GalCer analogs C13, C14 or C16 at 10 μg/ml for four hours, followed by infection with FLU-A virus serotype H1N1 (WSN) at 10TCID50.

[2] = tested on: human monocyte-derived DCs; experiment: Maturation of human monocyte-derived dendritic cells
[3] = tested on: BALB/c mice; experiment: Mouse serum cytokines/chemokines after IV, SubQ or IM injection; type: in vivo
[4] = tested on: syngeneic breast cancer (4T1); experiment: Breast cancer model in mice (4T1, SubQ inoculation); type: in vivo, mouse; conditions: SubQ delivery
[5] = tested on: naïve CD161^+/CD3^+ NKTs; experiment: Human NKT TCR activation (phosphoproteins), glycolipid presented by HeLa, HeLa-CD1d or iDCs, 10 μg/ml; type: cell-based; conditions: for intracellular phospho-CD3ε / phospho-CREB / phospho-ERK1/2: 10 μg/ml
[6] = tested on: FLU-A virus serotype H1N1 (WSN); experiment: Influenza virus H1N1 (WSN) infection in BALB/c mice; conditions: mouse, in vivo
[7] = tested on: syngeneic lung cancer (TC1) cells; experiment: Lung cancer model in mice (TC1, IV inoculation); type: in vivo, mouse; conditions: IV administration
[8] = tested on: human naïve NKTs (CD161^+CD3^+); experiment: Cytokine/chemokine secretion by human naïve CD161+CD3+ NKTs co-cultured with autologous immature CD14+ DCs; type: cell-based
[9] = tested on: BALB/c mice; experiment: Expansion/activation of mouse splenocyte subpopulations 72 h after injection; type: in vivo
[10] = tested on: H5 of avian influenza viruses (pHA); type: in vivo, mouse; conditions: mouse, in vivo
[11] = tested on: Sphingomonas capsulata; experiment: Antibacterial efficacy in Sphingomonas capsulata infected mice; type: in vivo, mouse; conditions: 50 μg/kg
Description: Sphingomonas capsulata is a common environmental bacterial strain that is found in many places such as the air and water. It can be easily identified on nutrient agar plates because of its yellow colony color. […] Since the antibacterial activities of glycolipid antigens are mediated through the activation of NKT cells by glycolipid bound-CD1-d molecules, evaluation of the antibacterial efficacies using the disease model of Sphingomonas capsulata infection will focus on the impact of the NKT mediated pathway that is activated by glycolipid bindings. Six to eight week old female C57BL/6 mice were injected IP with Sphingomonas capsulate cells. […] Twenty-four hours after bacterial infection, livers were removed from mice and homogenized. Colony formation units (CFU) of Sphingomonas capsulate in liver homogenates were determined by plating diluted samples on nutrient plates. Colonies were counted after incubation for 48 hours at 37° C. […] To confirm the antibacterial efficacies of these α-GalCer analogs, another study was conducted to repeat the study by treating infected mice with 50 μg/kg in the same disease model. […] Six to eight week old female C57BL/6 mice were injected IP with 5×10^8 Sphingomonas capsulate cells. Mice were grouped into treatment and control groups with 4-6 mice per group. Four hours after the infection, mice in the treatment group were injected IP with testing α-GalCer analogs at 50 or 100 μg/kg, and the control group mice were injected with same volumes of PBS. Twenty-four hours after bacterial infection, mice from all groups were sacrificed. Livers were removed from mice and homogenized in 0.9% NaCl, 0.02% Tween 80 using tissue homogenizers. Colony formation units (CFU) of Sphingomonas capsulate in liver homogenates were determined by plating diluted samples on nutrient plates. Colonies were counted after incubation for 48 hours at 37° C.

[12] = tested on: B16 melanoma; experiment: Tumor infiltrating lymphocytes in B16 melanoma by flow cytometry; type: in vivo; conditions: day 21; 0.1 μg/mouse, once/week; normalized to DMSO
[13] = tested on: C57BL/6 mice; experiment: Expansion of NKT subsets in spleens of C57BL/6 mice; type: in vivo; conditions: C57BL/6 Wt, 72 h post IV injection, 0.1 μg per mouse
[14] = tested on: TC1 tumor; experiment: Tumor infiltrating lymphocytes in lung cancer (TC1) by flow cytometry; type: in vivo; conditions: day 21; 0.1 μg/mouse, once/week; normalized to DMSO

With `CCCCCCCCCCCCCCCCCCCCCCCCCC(=O)N[C@@H](CO[C@H]1O[C@H](CO)[C@H](O)[C@H](O)[C@H]1O)[C@H](O)[C@H](O)CCc1ccccc1` [C13] the “entry/replication of H1N1 virus (virus titer)” value [1] was “slight inhibition of the entry/replication of H1N1 virus in vitro”, the “maturation of human monocyte-derived DCs” value [2] was “promotes maturation of human monocyte-derived DCs” and the “IFN-γ/IL-4 ratio (TH1/TH2 bias)” value ([3]; 2 hours, IV route, compared with C1) was “less TH2 responses than C1”. For the same compound, the “serum IL-2, IL-12, MIP-1β and MCP-1” value ([3]; IV administration) was “striking rises in IL-2, IL-12, MIP-1β and MCP-1”, the “effects on survival compared with C1” value [4] was “did not differ significantly from that of C1” and the “suppression of tumor size compared with C1” value [4] was “significantly greater suppression of tumor size than C1”. The “tumor growth and survival compared to control” value [4] was “able to suppress tumor growth and prolong survival as compared to control”, the TCR activation ([5]; CD1d-dependent, HeLa-CD1d or DCs) was “stronger in TCR activation than compounds C1 and C17” and the “intracellular phospho-CD3ε” value ([5]; presented by DCs) was 17.3 folds. The phospho-CREB ([5]; presented by DCs) was 158 folds increase, the “intracellular phospho-CD3ε” value ([5]; presented by HeLa-CD1d cells) was 7.3 folds of control and the phospho-CREB ([5]; presented by HeLa-CD1d cells) was 41 folds expression. For the same compound, the phospho-ERK1/2 ([5]; with DCs) was 35 folds, the phospho-ERK1/2 ([5]; with HeLa-CD1d cells) was 6.6 folds increase and the “cumulative proportion of survival” value [6] was “prolonged survival”. For the same compound, the survival [6] was “significantly enhanced survival”, the “anti-cancer efficacy compared with C1” value [7] was “significantly greater anti-cancer efficacy than C1” and the “secretion of IFN-γ” value ([8]; 10 μg/ml, 18 hour culture, compared with α-GalCer) was “significantly greater secretion of IFN-γ than α-GalCer”. The induction of chemokines ([8]; compared with α-GalCer) was “striking increase in chemokines such as MIP-11, MCP-1, and IL-8”, the “IFN/IL-4 ratio (TH1/TH2 bias)” value ([8]; normalized to DMSO control) was “more TH1-biased” and the “total and mature DCs” value ([9]; FIGS. 26B, 28B and 30B, compared with C1) was “significantly greater rises in total and mature DCs than C1”. The “CD8^+/CD4^+ ratio” value ([9]; FIGS. 26H, 28H and 30H) was “more potent than C1”, the splenocyte expansion ([9]; IM administration, 72 hours) was “greater effects than C1” and the expansion of splenocytes ([9]; IV administration, 72 hours) was “greater potency than C1”. The “CD4^+ T cells” value ([9]; SubQ route) was “more active over control”, the “CD8^+ T cells” value ([9]; SubQ route) was “more activity than C1” and the B cell expansion/activation ([9]; mouse, in vivo) was “significant activities”. The “CD8^+ T cell expansion/activation” value ([9]; mouse, in vivo) was “more active than C1”, the “NK and NKT expansion/activation” value ([9]; mouse, in vivo) was “comparable activities as C1” and the “expansion/activation of NKs and NKTs” value ([9]; mouse, in vivo) was “best capacity for expansion/activation of NKs and NKTs”. The “adjuvant activities in enhancing the anti-HAc antibody titer” value [10] was “better adjuvant activities than the others in enhancing the antibody titer” and the effectiveness as adjuvant [10] was “particularly effective as adjuvants”.
In the case of `CCCCCCCCCCCCCC[C@@H](O)[C@@H](O)[C@H](CO[C@H]1O[C@H](CO)[C@H](O)[C@H](O)[C@H]1O)NC(=O)CCCCCCCCCCc1ccc(-c2ccc(F)cc2)cc1` [C30], the “CFU numbers (in lungs)” value [11] is reported as “significant in comparison to the untreated group”, the “number of tumor infiltrating lymphocytes (CD3+ T, CD8 T, NKs, NKTs)” value [12] is reported as “significantly significant increase in the number of TH1-biased tumor infiltrating lymphocytes in melanoma, as compared with both control and α-GalCer” and the “total number of NKTs and its two subtypes NKT1 and NKT2” value [13] is reported as “increase of total number of NKTs”. The “number of tumor infiltrating lymphocytes (CD3+ T, CD8 T, NKs, NKTs)” value [14] was “significantly significant increase in the number of TH1-biased tumor infiltrating lymphocytes in lung cancer, as compared with both control and α-GalCer”.
